This is an account of results in patent publication US20250186541A1, “DLL3 TARGETING PEPTIDES AND CONSTRUCTS THEREOF” (MARIANA ONCOLOGY INC., priority 2023, published 2025).

pKd: −log10 of the molar value. Numbered stars: 1 amine (or outer) side, 2 acyl side, 3 side chain; on linkers, the order of the positions; unused ones are H or OH. Bridge positions count the residues as written; N and C are the ends. Square brackets hold non-standard residues; d marks the D form. Peptide text beside a SMILES is read from it. * marks the point of attachment. ξ: configuration not given here. DOTA = O=C(O)CN1CCN(CC(=O)O)CCN(CC(=O)*)CCN(CC(=O)O)CC1; Phe(2-Cl) = N[C@@H](Cc1ccccc1Cl)C(=O)O; 1Nal = N[C@@H](Cc1cccc2ccccc12)C(=O)O; 2Nal = N[C@@H](Cc1ccc2ccccc2c1)C(=O)O; Phe(2-F) = N[C@@H](Cc1ccccc1F)C(=O)O; Phe(2-Me) = Cc1ccccc1C[C@H](N)C(=O)O; NMeF = CN[C@@H](Cc1ccccc1)C(=O)O; Chg = N[C@H](C(=O)O)C1CCCCC1; Pen = CC(C)(S)[C@H](N)C(=O)O; αMeP = C[C@@]1(C(=O)O)CCCN1; NMeC = CN[C@@H](CS)C(=O)O; dNMeA = CN[C@H](C)C(=O)O; CH2 = C([*:1])[*:2]; ξC = NC(CS)C(=O)O

The target in this test is T1, human DLL3 (Homo sapiens, UniProt Q9NYJ7).
T1 construct: biotin (biotinylated)
T1 sequence (Q9NYJ7 27-618): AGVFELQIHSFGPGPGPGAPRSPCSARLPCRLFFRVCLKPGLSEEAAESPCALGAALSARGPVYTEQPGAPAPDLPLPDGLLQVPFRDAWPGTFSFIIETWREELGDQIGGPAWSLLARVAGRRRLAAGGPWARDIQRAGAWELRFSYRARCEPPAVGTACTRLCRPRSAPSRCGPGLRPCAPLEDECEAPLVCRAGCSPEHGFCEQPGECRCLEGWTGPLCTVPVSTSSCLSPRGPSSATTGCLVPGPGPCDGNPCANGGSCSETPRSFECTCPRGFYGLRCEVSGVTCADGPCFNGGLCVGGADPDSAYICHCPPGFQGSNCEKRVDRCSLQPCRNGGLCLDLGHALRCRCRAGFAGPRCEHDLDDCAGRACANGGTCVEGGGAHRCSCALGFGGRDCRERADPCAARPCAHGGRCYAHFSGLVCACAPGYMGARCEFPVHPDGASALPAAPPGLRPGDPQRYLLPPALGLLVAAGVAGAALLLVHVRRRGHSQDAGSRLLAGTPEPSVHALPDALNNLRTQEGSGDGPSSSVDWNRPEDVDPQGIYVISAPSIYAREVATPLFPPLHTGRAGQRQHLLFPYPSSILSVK
Briefly: Affinity determination by Surface Plasmon Resonance (SPR), Biacore, 1:1 binding model. As to conditions: biotinylated human DLL3 on streptavidin chip, 25° C.; NB = nonbinding. Put shortly: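 SPR with biotinylated human DLL3 captured on a streptavidin chip, with a reference surface subtracted. Samples were injected at several concentrations at 100 μL/min in phosphate buffer with 137 mM NaCl, 2.7 mM KCl, 0.05% P20 and 2% DMSO. Kinetic and affinity constants came from a 1:1 binding fit.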
For orientation: Surface plasmon resonance follows binding to a sensor surface in real time, without labels.
With `CC(=O)N[C@H](C(=O)N[C@@H](CO)C(=O)N[C@@H](CC(=O)O)C(=O)N[C@H]1CSSC[C@@H](C(=O)N(C)[C@H](C)C(=O)N(C)[C@@H](Cc2ccccc2)C(=O)N[C@@H](CC(=O)O)C(=O)N[C@H](CCCCNC(=O)CN2CCN(CC(=O)O)CCN(CC(=O)O)CCN(CC(=O)O)CC2)C(N)=O)NC(=O)[C@H](CC(N)=O)NC(=O)[C@H](Cc2c[nH]c3ccccc23)NC(=O)[C@H](CCC(N)=O)NC(=O)[C@H](CC(C)C)NC(=O)[C@H](Cc2cccc3ccccc23)NC1=O)C1CCCCC1` [compound 110, Ac-(Chg)-S-D-C(3)-(1Nal)-L-Q-W-N-C(3)-(NMeD-Ala)-(NMe-F)-D-D-Lys(DOTA)-CONH2] (Ac-[Chg]SDC[1Nal]LQWNC[dNMeA][NMeF]D[dK](DOTA)-NH2; disulfide 4-10), the pKd (as a rule, −log10 of the Kd, conventionally taken in molar units) is less than 7.52.
Take `CC(=O)N[C@H](C(=O)N[C@@H](CO)C(=O)N[C@@H](CC(=O)O)C(=O)N[C@H]1CSSC[C@@H](C(=O)N2CCC[C@H]2C(=O)N[C@@H](Cc2ccccc2)C(=O)N[C@@H](CC(=O)O)C(=O)N[C@H](CCCCNC(=O)CN2CCN(CC(=O)O)CCN(CC(=O)O)CCN(CC(=O)O)CC2)C(N)=O)NC(=O)[C@H](CC(N)=O)NC(=O)[C@H](Cc2ccc3ccccc3c2)NC(=O)[C@H](CCC(N)=O)NC(=O)[C@H](CC(C)C)NC(=O)[C@H](Cc2cccc3ccccc23)NC1=O)C1CCCCC1` [compound 114, Ac-(Chg)-S-D-C(3)-(1Nal)-L-Q-(2Nal)-N-C(3)-P-F-D-D-Lys(DOTA)-CONH2] (Ac-[Chg]SDC[1Nal]LQ[2Nal]NCPFD[dK](DOTA)-NH2; disulfide 4-10): the pKd was 9.42.
Under `CC(=O)N[C@H](C(=O)N[C@@H](CO)C(=O)N[C@@H](CC(=O)O)C(=O)N[C@H]1CSSC[C@@H](C(=O)N2CCC[C@H]2C(=O)N[C@@H](Cc2ccccc2)C(=O)N[C@@H](CC(=O)O)C(=O)N[C@H](CCCCNC(=O)CN2CCN(CC(=O)O)CCN(CC(=O)O)CCN(CC(=O)O)CC2)C(N)=O)N(C)C(=O)[C@H](CC(N)=O)NC(=O)[C@H](Cc2c[nH]c3ccccc23)NC(=O)[C@H](CCC(N)=O)NC(=O)[C@H](CC(C)C)NC(=O)[C@H](Cc2cccc3ccccc23)NC1=O)C1CCCCC1` [compound 115, Ac-(Chg)-S-D-C(3)-(1Nal)-L-Q-W-N-(NMe-Cys)-P-F-D-D-Lys(DOTA)-CONH2] (Ac-[Chg]SDC[1Nal]LQWN[NMeC]PFD[dK](DOTA)-NH2; disulfide 4-10) stands less than 7.00; under `CC(=O)N[C@H](C(=O)N[C@@H](CO)C(=O)N[C@@H](CC(=O)O)C(=O)N[C@H]1CSSC[C@@H](C(=O)N2CCC[C@@H]2C(=O)N[C@@H](Cc2ccccc2)C(=O)N[C@@H](CC(=O)O)C(=O)N[C@H](CCCCNC(=O)CN2CCN(CC(=O)O)CCN(CC(=O)O)CCN(CC(=O)O)CC2)C(N)=O)NC(=O)[C@H](CC(N)=O)NC(=O)[C@H](Cc2c[nH]c3ccccc23)NC(=O)[C@H](CCC(N)=O)NC(=O)[C@H](CC(C)C)NC(=O)[C@H](Cc2cccc3ccccc23)NC1=O)C1CCCCC1` [compound 116, Ac-(Chg)-S-D-C(3)-(1Nal)-L-Q-W-N-C(3)-(D-Pro)-F-D-D-Lys(DOTA)-CONH2] (Ac-[Chg]SDC[1Nal]LQWNC[dP]FD[dK](DOTA)-NH2; disulfide 4-10), less than 7.52; under `CC(=O)N[C@H](C(=O)N[C@@H](CO)C(=O)N[C@@H](CC(=O)O)C(=O)N[C@H]1CSSC[C@@H](C(=O)N2CCC[C@@]2(C)C(=O)N[C@@H](Cc2ccccc2F)C(=O)N[C@@H](CC(=O)O)C(=O)N[C@H](CCCCNC(=O)CN2CCN(CC(=O)O)CCN(CC(=O)O)CCN(CC(=O)O)CC2)C(N)=O)NC(=O)[C@H](CC(N)=O)NC(=O)[C@H](Cc2c[nH]c3ccccc23)NC(=O)[C@H](CCC(N)=O)NC(=O)[C@H](CC(C)C)NC(=O)[C@H](Cc2cccc3ccccc23)NC1=O)C1CCCCC1` [compound 117, Ac-(Chg)-S-D-C(3)-(1Nal)-L-Q-W-N-C(3)-(aMe-P)-(2F-Phe)-D-D-Lys(DOTA)-CONH2] (Ac-[Chg]SDC[1Nal]LQWNC[αMeP][Phe(2-F)]D[dK](DOTA)-NH2; disulfide 4-10), 9.18.
Under `CC(=O)N[C@H](C(=O)N[C@@H](CO)C(=O)N[C@@H](CC(=O)O)C(=O)N[C@H]1CSSC[C@@H](C(=O)N2CCC[C@@]2(C)C(=O)N[C@@H](Cc2ccccc2Cl)C(=O)N[C@@H](CC(=O)O)C(=O)N[C@H](CCCCNC(=O)CN2CCN(CC(=O)O)CCN(CC(=O)O)CCN(CC(=O)O)CC2)C(N)=O)NC(=O)[C@H](CC(N)=O)NC(=O)[C@H](Cc2c[nH]c3ccccc23)NC(=O)[C@H](CCC(N)=O)NC(=O)[C@H](CC(C)C)NC(=O)[C@H](Cc2cccc3ccccc23)NC1=O)C1CCCCC1` [compound 118, Ac-(Chg)-S-D-C(3)-(1Nal)-L-Q-W-N-C(3)-(aMe-P)-(2Cl-Phe)-D-D-Lys(DOTA)-CONH2] (Ac-[Chg]SDC[1Nal]LQWNC[αMeP][Phe(2-Cl)]D[dK](DOTA)-NH2; disulfide 4-10) stands 9.13; under `CC(=O)N[C@H](C(=O)N[C@@H](CO)C(=O)N[C@@H](CC(=O)O)C(=O)N[C@H]1CSSC[C@@H](C(=O)N2CCC[C@@]2(C)C(=O)N[C@@H](Cc2ccccc2C)C(=O)N[C@@H](CC(=O)O)C(=O)N[C@H](CCCCNC(=O)CN2CCN(CC(=O)O)CCN(CC(=O)O)CCN(CC(=O)O)CC2)C(N)=O)NC(=O)[C@H](CC(N)=O)NC(=O)[C@H](Cc2c[nH]c3ccccc23)NC(=O)[C@H](CCC(N)=O)NC(=O)[C@H](CC(C)C)NC(=O)[C@H](Cc2cccc3ccccc23)NC1=O)C1CCCCC1` [compound 119, Ac-(Chg)-S-D-C(3)-(1Nal)-L-Q-W-N-C(3)-(aMe-P)-(2Me-Phe)-D-D-Lys(DOTA)-CONH2] (Ac-[Chg]SDC[1Nal]LQWNC[αMeP][Phe(2-Me)]D[dK](DOTA)-NH2; disulfide 4-10), 9.19; under `CC(=O)N[C@H](C(=O)N[C@@H](CO)C(=O)N[C@@H](CC(=O)O)C(=O)N[C@H]1CSSC(C)(C)[C@@H](C(=O)N2CCC[C@@]2(C)C(=O)N[C@@H](Cc2ccccc2)C(=O)N[C@@H](CC(=O)O)C(=O)N[C@H](CCCCNC(=O)CN2CCN(CC(=O)O)CCN(CC(=O)O)CCN(CC(=O)O)CC2)C(N)=O)NC(=O)[C@H](CC(N)=O)NC(=O)[C@H](Cc2c[nH]c3ccccc23)NC(=O)[C@H](CCC(N)=O)NC(=O)[C@H](CC(C)C)NC(=O)[C@H](Cc2cccc3ccccc23)NC1=O)C1CCCCC1` [compound 120, Ac-(Chg)-S-D-C(3)-(1Nal)-L-Q-W-N-Pen(3)-(aMe-P)-F-D-D-Lys(DOTA)-CONH2] (Ac-[Chg]SDC[1Nal]LQWN[Pen][αMeP]FD[dK](DOTA)-NH2; disulfide 4-10), less than 7.52.
The compound `CC(=O)N[C@H](C(=O)N[C@@H](CO)C(=O)N[C@@H](CC(=O)O)C(=O)NC1CSCSC[C@@H](C(=O)N2CCC[C@@]2(C)C(=O)N[C@@H](Cc2ccccc2)C(=O)N[C@@H](CC(=O)O)C(=O)N[C@H](CCCCNC(=O)CN2CCN(CC(=O)O)CCN(CC(=O)O)CCN(CC(=O)O)CC2)C(N)=O)NC(=O)[C@H](CC(N)=O)NC(=O)[C@H](Cc2c[nH]c3ccccc23)NC(=O)[C@H](CCC(N)=O)NC(=O)[C@H](CC(C)C)NC(=O)[C@H](Cc2cccc3ccccc23)NC1=O)C1CCCCC1` (stereo partly drawn) [compound 121, Ac-(Chg)-S-D-[D-Cys(1)]-(1Nal)-L-Q-W-N-C(1)-(aMe-P)-F-D-D-Lys(DOTA)-CONH2] (Ac-[Chg]SD[ξC][1Nal]LQWNC[αMeP]FD[dK](DOTA)-NH2; linker 4-10 via CH2) showed a pKd of less than 7.52.
